# According to patent US20240383870A1, “HETEROCYCLIC ALDEHYDE TRAPPING COMPOUNDS AND USES THEREOF” (Aldeyra Therapeutics, Inc., priority 2021, published 2024):
# How the values were obtained:
# [1] = tested on: IL-6; assay: Acute LPS-induced sepsis in C57BL/6 mice: IL-6 cytokine detection assay; type: in vivo; details: 200 mpk PO; LPS-challenged mice, plasma at 6.5 h; unpaired t-test vs vehicle
# Excerpt: FIG. 11 is a graph showing the results of an IL-6 cytokine detection assay in samples collected from mouse subjects after administration of compounds of the present disclosure.
# (§1) The primary objective of this study was to collect plasma samples of lipopolysaccharide (LPS) challenged C57BL/6 mice after dose of test compounds to provide a cytokine profile as impacted by prophylactic treatments. This study models acute sepsis, which is a systemic inflammatory syndrome initiated by Gram-negative and Gram-positive bacteria and fungi which infect the lungs, abdomen, bloodstream, and renal or genitourinary tracts. Sepsis patients ultimately die of multiorgan failure which is caused by extensive tissue hypo-oxygenation due to ongoing microvascular leakage, disseminated intravascular coagulation, compromised energy production, and metabolic alterations. Sepsis is characterized by an early systemic inflammatory response phase featuring symptoms, such as tachycardia, fever, hyperventilation, and activation of the complement and coagulation cascades. However, it is now appreciated that a compensatory anti-inflammatory response phase follows, characterized by neuroendocrine-mediated immunosuppression. Since these processes are the result of interaction between cells of inflammation and organs, investigation of the treatment of this syndrome requires the use of intact animal models. The use of ten mice per group allows useful statistical modelling of the results.
# (§2) For the data shown in Table 2A, 103 mice (female, 18-22 gram, C57BL/6) were purchased from ENVIGO. The mice were housed in 20 cages of 5 mice per cage with 1 cage of 3 mice as extra. The cages had filter tops and autoclaved bedding, and the animals were placed in quarantine with daily inspection. The treatment groups are detailed in Table 2A below. 10 mice were included in each group. The mice were dosed by oral gavage (PO) at 10 ml/kg as per the table below. MC=methyl cellulose.
# as §2, with “2B, 185” for “2A, 103”, “37” for “20”, “cage.” for “cage with 1 cage of 3 mice as extra.”, “2B” for “2A”, “(P0)” for “(PO)”
# (§3) At T=0 h, the mice were dosed with one of the test compounds as described in the above table.
# (§4) At T=0.5 h, the mice were injected IP with 1.5 mg/kg […] (Sigma).
# (§5) At T=6.5 h, all mice were anesthetized and exsanguinated into pre-chilled EDTA-treated tubes. […]
# (§6) A 32-plex cytokine panel was obtained from Eve Technologies. Each cytokine was assessed based against a 7 point curve range in duplicate. […]
# [2] = tested on: IL-12(p70); assay: Acute LPS-induced sepsis in C57BL/6 mice: IL-12(p70) cytokine detection assay; type: in vivo; details: 200 mpk PO; LPS-challenged mice, plasma at 6.5 h; unpaired t-test vs vehicle
# Excerpt: FIG. 16 is a graph showing the results of an IL-12(p70) cytokine detection assay in samples collected from mouse subjects after administration of compounds of the present disclosure.
# as §1
# as §2, with “The mice were dosed by oral gavage (PO) at 10 ml/kg as per the table below.” left out
# as §2, with “2B, 185” for “2A, 103”, “37” for “20”, “cage.” for “cage with 1 cage of 3 mice as extra.”, “2B” for “2A”, “(P0)” for “(PO)”
# as §3, §4
# (§7) At T=6.5 h, all mice were anesthetized and exsanguinated into pre-chilled EDTA-treated tubes. The blood was processed to plasma which was stored in labeled 0.5 polypropylene snap-cap tubes (0.5 mL Eppendorf Safe-Lock Tubes (Fisher Scientific) at −80° C.
# (§8) Preparation of vehicle: 1.0 gram of methyl cellulose (Sigma) was dissolved in 200 mL of water (USP purified) to make a solution of 0.5% methyl cellulose in water. Preparation of LPS solution: 6 mg of LPS (from Escherichia Coli 055:B5, Cat #L2880, Sigma Lot #057m4013) was dissolved in 20 ml of saline to give a LPS solution of 0.3 mg/ml. All mice were injected with 5 ml/kg (1.5 mg/kg) at the scheduled time by intraperitoneal injection.
# A 32-plex cytokine panel was obtained from Eve Technologies. Each cytokine was assessed based against a 7 point curve range in duplicate. The average of the two replicate analyses was used for statistics. Unpaired t-tests were performed using Excel™ contrasting vehicle against each treatment group. One star indicates P<0.05. […]
# [3] = tested on: leukemia inhibitory factor (LIF); assay: Acute LPS-induced sepsis in C57BL/6 mice: leukemia inhibitory factor (LIF) cytokine detection assay; type: in vivo; details: 200 mpk PO; LPS-challenged mice, plasma at 6.5 h; unpaired t-test vs vehicle
# Excerpt: FIG. 21 is a graph showing the results of a leukemia inhibitory factor (LIF) cytokine detection assay in samples collected from mouse subjects after administration of compounds of the present disclosure. LIF is an interleukin 6 class cytokine that affects cell growth by inhibiting differentiation.
# as §1, §2
# as §2, with “2B, 185” for “2A, 103”, “37” for “20”, “cage.” for “cage with 1 cage of 3 mice as extra.”, “2B” for “2A”, “(P0)” for “(PO)”
# as §3, §4, §7, §8, §6
# [4] = 4-HNE trapping experiment (aldehyde adduct formation, Example 6); details: 4-HNE 1.5 eq; 20% Captisol in phosphate buffer pH 7.2; 24-h time period; LCMS
# Procedure: Each of compounds ADX-102, I-32, I-8, I-29, and I-31 ([…]) was tested for reactivity using 4-hydroxynonenal (4-HNE) (1.5 eq) as a model aldehyde. ADX-102 is also known as Reproxalap. Each compound was dissolved in a 20% solution of Captisol in phosphate buffer (1 mL, pH=7.2). Then, 4-HNE in ethanol (10 mg/mL solution) was added to the solution. The ensuing reaction was monitored by LCMS analysis. The relative ratio of experimental compound/4-HNE adduct to final composition was plotted against time to provide an indication of reaction rate and level of reaction completeness.
# [5] = tested on: IL-2; assay: Acute LPS-induced sepsis in C57BL/6 mice: IL-2 cytokine detection assay; type: in vivo; details: 200 mpk PO; LPS-challenged mice, plasma at 6.5 h; unpaired t-test vs vehicle
# Excerpt: FIG. 7 is a graph showing the results of an IL-2 cytokine detection assay in samples collected from mouse subjects after administration of compounds of the present disclosure.
# as §1, with “Since these processes are the result of interaction between cells of inflammation and organs, investigation of the treatment of this syndrome requires the use of intact animal models. The use of ten mice per group allows useful statistical modelling of the results.” left out
# as §6
# [6] = tested on: MIP2(CXCL2); assay: Acute LPS-induced sepsis in C57BL/6 mice: MIP2(CXCL2) cytokine detection assay; type: in vivo; details: 200 mpk PO; LPS-challenged mice, plasma at 6.5 h; unpaired t-test vs vehicle
# Excerpt: FIG. 27 is a graph showing the results of a MIP2(CXCL2) cytokine detection assay in samples collected from mouse subjects after administration of compounds of the present disclosure.
# as §1
# as §2, with “The mice were dosed by oral gavage (PO) at 10 ml/kg as per the table below.” left out
# as §2, with “2B, 185” for “2A, 103”, “37” for “20”, “cage.” for “cage with 1 cage of 3 mice as extra.”, “2B” for “2A”, “(P0)” for “(PO)”
# as §3, §4, §5, §6
# [7] = tested on: KC; assay: Acute LPS-induced sepsis in C57BL/6 mice: KC cytokine detection assay; type: in vivo; details: 200 mpk PO; LPS-challenged mice, plasma at 6.5 h; unpaired t-test vs vehicle
# Excerpt: FIG. 20 is a graph showing the results of a KC cytokine detection assay in samples collected from mouse subjects after administration of compounds of the present disclosure.
# as §1, §2
# as §2, with “2B, 185” for “2A, 103”, “37” for “20”, “cage.” for “cage with 1 cage of 3 mice as extra.”, “2B” for “2A”, “(P0)” for “(PO)”
# as §3, §4, §7, §8
# A 32-plex cytokine panel was obtained from Eve Technologies. Each cytokine was assessed based against a 7 point curve range in duplicate. The average of the two replicate analyses was used for statistics. Unpaired t-tests were performed using Excel™ contrasting vehicle against each treatment group. One star indicates P<0.05. Two stars indicates P<0.01. Three stars indicates P<0.001. Four stars indicates P<0.0001. Most, but not all, statistically significant results are indicated with star(s).
# [8] = tested on: IL-9; assay: Acute LPS-induced sepsis in C57BL/6 mice: IL-9 cytokine detection assay; type: in vivo; details: 200 mpk PO; LPS-challenged mice, plasma at 6.5 h; unpaired t-test vs vehicle
# Excerpt: FIG. 13 is a graph showing the results of an IL-9 cytokine detection assay in samples collected from mouse subjects after administration of compounds of the present disclosure.
# as §1
# as §2, with “cellulose. […]” for “cellulose.”
# as §6
smiles,measurement,setting,value
CC(C)(O)c1cc2c(cc1N)OCO2 [Compound I-29],IL-6: significant cytokine change vs. vehicle,[1],** (Two stars indicates P<0.01)
same,IL-12 (p70): significant cytokine change vs. vehicle,[2],**** (Four stars indicates P<0.0001)
same,LIF: significant cytokine change vs. vehicle,[3],**** (Four stars indicates P<0.0001)
same,4-HNE binding (rate of formation of aldehyde adduct),[4],the best binding
same,IL-2: significant cytokine change vs. vehicle,[5],** (Two stars indicates P<0.01)
same,MIP-2: significant cytokine change vs. vehicle,[6],* (One star indicates P<0.05)
same,KC: significant cytokine change vs. vehicle,[7],* (One star indicates P<0.05)
same,IL-9: significant cytokine change vs. vehicle,[8],*** (Three stars indicates P<0.001)
